Test results: patent US20040014215A1, “Synchronised arabidopsis cell suspensions and uses thereof” (priority 2000, published 2004)

Tests used:
[1] = system: Arabidopsis cell suspension culture MM1; test: Scaled-up aphidicolin (4.16 μg/ml, 24 hrs) synchronisation of MM1: LI and MI; type: cell-based, Arabidopsis thaliana
Experimental: (§1) was analysed following the expression level of known cell cycle regulated genes. Synchronisation was performed as described in Example 2A, with the exception that two 7-day old cultures of the weekly sub-cultured cell suspension (210 ml each) were combined. 40 ml of combined culture was transferred into 200 ml of fresh MSS-medium in each of 10 separate flasks. After incubation for 24 hrs under conditions as described in Example 1, in the presence of 4.16 μg/ml aphidicolin, cells from 5 pooled flasks were washed through a nylon net (mesh size 47 μm) and washed with 2 litre MSS medium and shaken vigorously to remove the aphidicolin. Cells were transferred into a 50 ml plastic tube, washed again with MSS medium and centrifuged at 2500 rpm for 1 min (1075 rcf). Cells were resuspended and combined with the cells from the other 5 flasks similarly washed in a total volume of 300 ml fresh MSS-medium. 30 ml of this cell suspension was then added to 200 ml fresh MSS-medium in each of 10 separate flasks.
For every time point a 30 ml sample was split into:
2) 5 ml for LI and Ml determination as described in Example 2A.
A MI peak of 9.8% was observed, about 12 hrs after release from the aphidicolin block. Labelling index was also determined and reached a peak of 52%, 3 h after release.

histone H4 = test: Northern expression analysis after aphidicolin synchronisation of MM1 (maximum signal = 100%); type: cell-based, Arabidopsis thaliana
Experimental: as §1
1) 25 ml for Northern blot (transferred into 50 ml plastic tube, centrifuged at 2500 rpm for 1 min, the supernatant discarded, and the cell pellet shock-frozen in liquid nitrogen before storing in −80° C. freezer)
Samples were collected at the time point indicated (time of removal of aphidicolin equals time point 0 hrs) and were analysed for expression of the following genes by Northern blot:
histone H4 (ID/Accession no. ATH4 GB/M17133)
For each probe the maximum hybridisation signal obtained was defined as 100%.

[2] = system: Arabidopsis cell suspension culture MM1; test: Aphidicolin block/release of MM1: mitotic index (DAPI) and labelling index (BrdU); type: cell-based, Arabidopsis thaliana
Experimental: Arabidopsis cell suspension culture MM1 (DSM 13563) was used for synchronisation experiments. The suspension culture was maintained by sub-culturing weekly 10 ml into 200 ml of fresh MSS-medium (MS-salt, 3% sucrose, 0.5 mg/l NAA, 0.05 mg/l kinetin) which is cultured in 500 ml narrow neck Erlenmeyer flasks, of which the opening is covered with double layer of aluminium foil and loosely covered with Saran wrap and which are placed on a GYROTORY® Shaker (New Brunswick Scientific). The cell suspension culture was grown under continuous light conditions (24 hrs a day); Philips lamps were used with the specification TLD HF 50W/840; light level is in average 1300 Lux and the cell suspension culture is rotated at 120 rpm at a temperature varying between 23-25° C. To arrest cells reversibly in late G1/early S-phase, cells were blocked with aphidicolin according to Nagata et al. 1992 (with slight modifications), 40 ml of an early stationary phase cell suspension culture was subcultured into 200 ml MSS-medium, 4.16 μg/ml aphidicolin was added to block cells at the end of G1/early S-phase, and the culture was incubated at 23° C., 120 rpm in the conditions as described above for MM1, for a period of 21.5 hrs. To remove aphidicolin, cells were washed through a nylon mesh (mesh size 47 μm) with 11 MSS-medium by vigorously shaking and resuspended in MSS-medium. The cells were vigorously shaken, for a washing time of about 14 min, and then centrifuged at 150Orpm for 1 min (387 rcf) with the brake switched off.

alfalfa-cell suspension = conditions: blocked with aphidicolin for 36 h and released; cited from earlier work
[3] = 0 hrs after aphidicolin removal
[4] = 2 hrs after aphidicolin removal
[5] = 4 hrs after aphidicolin removal
[6] = 6 hrs after aphidicolin removal
[7] = 8 hrs after aphidicolin removal
[8] = 10 hrs after aphidicolin removal
[9] = 12 hrs after aphidicolin removal
[10] = 14 hrs after aphidicolin removal
[11] = 16 hrs after aphidicolin removal
[12] = 18 hrs after aphidicolin removal
[13] = 20 hrs after aphidicolin removal
[14] = 22 hrs after aphidicolin removal
[15] = 24 hrs after aphidicolin removal
[16] = 26 hrs after aphidicolin removal
[17] = 28 hrs after aphidicolin removal
[18] = range seen on blocking the cells with aphidicolin
[19] = this experiment (Example 2A), after release from aphidicolin block

## C[C@@]1(CO)[C@H](O)CC[C@@]2(C)[C@H]1CC[C@H]1C[C@@H]3C[C@@]12CC[C@]3(O)CO [aphidicolin]
[1]; 3 h after release
  Labelling index peak: 52%
[1]; about 12 hrs after release from the aphidicolin block
  MI peak: 9.8%
Histone H4; [3]
  histone H4 %: 33.81%
  histone H4 Band intensity: 1029
Histone H4; [4]
  histone H4 %: 100.0%
  histone H4 Band intensity: 3046
Histone H4; [5]
  histone H4 %: 84.73%
  histone H4 Band intensity: 2580
Histone H4; [6]
  histone H4 %: 58.91%
  histone H4 Band intensity: 1794
Histone H4; [7]
  histone H4 %: 32.42%
  histone H4 Band intensity: 987
Histone H4; [8]
  histone H4 %: 38.70%
  histone H4 Band intensity: 1178
Histone H4; [9]
  histone H4 %: 28.53%
  histone H4 Band intensity: 868
Histone H4; [10]
  histone H4 %: 22.81%
  histone H4 Band intensity: 694
Histone H4; [11]
  histone H4 %: 12.75%
  histone H4 Band intensity: 388
Histone H4; [12]
  histone H4 %: 11.26%
  histone H4 Band intensity: 343
Histone H4; [13]
  histone H4 %: 19.43%
  histone H4 Band intensity: 591
Histone H4; [14]
  histone H4 %: 17.55%
  histone H4 Band intensity: 534
Histone H4; [15]
  histone H4 %: 17.77%
  histone H4 Band intensity: 541
Histone H4; [16]
  histone H4 %: 23.04%
  histone H4 Band intensity: 701
Histone H4; [17]
  histone H4 %: 14.35%
  histone H4 Band intensity: 437
[2]; 1 h after aphidicolin removal
  Labelling Index (%): 23.21%
  Mitotic index (%): 0%
[2]; 2 h after aphidicolin removal
  Labelling Index (%): 41.3%
  Mitotic index (%): 0.5%
[2]; 3 h after aphidicolin removal
  Labelling Index (%): 65.06%
  Mitotic index (%): 0.58%
[2]; 4 h after aphidicolin removal
  Labelling Index (%): 64.13%
  Mitotic index (%): 0.5%
[2]; 5 h after aphidicolin removal
  Labelling Index (%): 50%
  Mitotic index (%): 0.68%
[2]; 6 h after aphidicolin removal
  Labelling Index (%): 18.43%
  Mitotic index (%): 1.88%
[2]; 7 h after aphidicolin removal
  Labelling Index (%): 13.67%
  Mitotic index (%): 2.37%
[2]; 8 h after aphidicolin removal
  Labelling Index (%): 10.32%
  Mitotic index (%): 2.04%
[2]; 9 h after aphidicolin removal
  Labelling Index (%): 8.1%
  Mitotic index (%): 2.63%
[2]; 10 h after aphidicolin removal
  Labelling Index (%): 7.86%
  Mitotic index (%): 2.84%
[2]; 11 h after aphidicolin removal
  Labelling Index (%): 7.65%
  Mitotic index (%): 5.06%
[2]; 12 h after aphidicolin removal
  Labelling Index (%): 6.8%
  Mitotic index (%): 7.96%
[2]; 13 h after aphidicolin removal
  Labelling Index (%): 3.08%
  Mitotic index (%): 11.67%
[2]; 14 h after aphidicolin removal
  Labelling Index (%): 5.05%
  Mitotic index (%): 9.03%
[2]; 15 h after aphidicolin removal
  Labelling Index (%): 3.68%
  Mitotic index (%): 7.86%
[2]; 16 h after aphidicolin removal
  Labelling Index (%): 4.09%
  Mitotic index (%): 5%
[2]; 17 h after aphidicolin removal
  Labelling Index (%): 9.46%
  Mitotic index (%): 2.96%
[2]; 18 h after aphidicolin removal
  Labelling Index (%): 12.96%
  Mitotic index (%): 3.24%
[2]; 19 h after aphidicolin removal
  Labelling Index (%): 10.91%
  Mitotic index (%): 2.06%
[2]; [18]
  MI peak: 10 to 15%
  labelling index: 50-65%
[2]; [19]
  LI peak: 65%
  MI peak: 12%
alfalfa-cell suspension
  peak mitotic index: up to 40%
